Measured values taken from US10561629B2, “Food containing glycine and use thereof” (AJINOMOTO CO., INC., priority 2004, dated 2020).
Where two headings read alike, the source gives them in different places.

What was measured:
[1] = rats, 2 g/kg, mean±standard error
Method: Glycine (substantially pure glycine powder) was administered to rats at 0 g/kg and 2 g/kg (0 g/kg for control) and using the rat, spontaneous electroencephalogram and cervix electromyogram were recorded through an electrode placed in the cortex hippocampus, and further, the amount of spontaneous motor activity was measured by an infrared ray monitor. The sleep-wake cycle was analyzed from the electroencephalogram, electromyogram and behavior record (kymogram), and percent occupation of light period and dark period and latency time were calculated.

[2] = 3 g 1 hr before bedtime
Method: A double-blind crossover test aiming at confirmation of the effect of glycine on sleep was performed with 14 male adults (body weight 64-112.5 kg, average 81.2 kg) concerned about snoring and apnea condition during sleep. The test participants took glycine (granules containing citric acid and the like) in an amount equivalent to 3 g of glycine 1 hr before bedtime, and reduced maltose containing components other than glycine (citric acid and the like) and adjusted to an almost indistinguishable taste was used as a placebo.
(1) For the evaluation of sleep condition, overnight polysomnography was used for the measurement.
In addition, the sleep condition of the night before was examined on waking using the sleep questionnaire.

[3] = 3 g before bed
Method: The test participant (body weight 45 kg) took, before going to bed, 3 g of glycine directly or upon addition to various foods (see, Table 3). The content (amount based on amino acid) of an amino acid other than glycine or a substance that can be hydrolyzed to give an amino acid other than glycine in these foods was generally 0 to 4 g. As compared to free of glycine intake, easiness of falling asleep and realization of deep sleep upon waking the next morning were recorded and summarized in Table 3.

[4] = Voluntary comments on quality of sleep, 77 participants (Experimental Example 5); conditions: 3 g glycine
[5] = for Heavy sleepiness (1 pm to 5 pm next afternoon) / Mild sleepiness (1 pm to 5 pm next afternoon) / No sleepiness (1 pm to 5 pm next afternoon): intake of glycine 1.5 g before sleep
Text: Three test participants (test participants A-C, body weight 64-74 kg) who were then visiting the U.S. for 5 days took glycine (1.5 g, substantially pure tablet glycine containing only excipient and flavor) before sleep and evaluated the sleepiness felt from 1 pm to 5 pm the next afternoon in 3 levels as compared to the absence of glycine.

[6] = 3 g 30 min before bedtime, sleep limited to about 75%, next daytime, mean ± standard error
Method: A single-blind crossover study aimed at confirmation of the effect of glycine on sleep was performed with 7 male adults (30s-40s, body weight 62-79 kg). The test participants took glycine (granule containing citric acid and the like) in an amount equivalent to 3 g of glycine 30 min before bedtime, and reduced maltose containing components other than glycine (citric acid and the like) and adjusted to an almost indistinguishable taste was used as a placebo. The sleep hours on the day of administration was limited to about 75% (5-6.5 hr) of comfortable sleep hours each test participant voluntarily notified, and a nap was prohibited until the end of the administration. For the test, glycine and placebo were each taken for 3 days with an interval of a 14-21 day non-intake period, totaling 4-5 weeks. Of the 3 days, the following investigation and measurement were performed at 10 o'clock, 14 o'clock and 18 o'clock of the next day of the first day of the intake.
In addition, the p value is a statistical value showing the probability when the difference between glycine and placebo was hypothesized to be null. Particularly, this value of 0.05 or below is considered to indicate a significant difference.

[7] = beagles, oral 30 or 300 mg/kg
Method: Glycine (substantially pure glycine powder) was administered at 0, 30, or 300 mg/kg (0 mg/kg for control, CTRL) to beagles, and using the beagles, the R-R interval in electrocardiogram was measured by a telemetry system as an index of sympathetic activity. The measurement was conducted in the night after glycine administration. From the R-R interval after oral administration of glycine, moreover, sympathetic activity ((low frequency component LF)/(high frequency component HF)) and parasympathetic activity (high frequency component HF) were examined by power spectrum analysis.

[8] = intake at 0.1 g per day; cited from earlier work
[9] = 0-3 hr after administration, dark period
[10] = 0-3 hr after administration, light period
[11] = 4-6 hr after administration, dark period
[12] = 4-6 hr after administration, light period
[13] = addition to Japanese tea, 10 days of testing
[14] = addition to herb tea, 5 days of testing
[15] = addition to hot milk, 4 days of testing
[16] = addition to hot water or water, 14 days of testing
[17] = addition to yoghurt, 7 days of testing
[18] = voluntary comments of 77 participants

NCC(=O)O [glycine, Glycine]
Percent occupation, fast wave sleep stage [1, 9]: 3.2 ± 1.7%
Percent occupation, slow wave sleep stage [1, 9]: 29.2 ± 6.5%
Percent occupation, waking stage [1, 9]: 67.6 ± 7.9%
Percent occupation, fast wave sleep stage [1, 10]: 5.5 ± 1.6%
Percent occupation, slow wave sleep stage [1, 10]: 54.9 ± 4.9%
Percent occupation, waking stage [1, 10]: 39.6 ± 6.0%
Percent occupation, fast wave sleep stage [1, 11]: 3.0 ± 0.7%
Percent occupation, slow wave sleep stage [1, 11]: 31.5 ± 2.8%
Percent occupation, waking stage [1, 11]: 65.6 ± 3.4%
Percent occupation, fast wave sleep stage [1, 12]: 13.4 ± 2.1%
Percent occupation, slow wave sleep stage [1, 12]: 65.9 ± 2.0%
Percent occupation, waking stage [1, 12]: 20.7 ± 0.8%
Amount of spontaneous motor activity at 6 hr after administration ([1]; dark period): 19464 ± 2765 count
Latency time, fast wave sleep stage ([1]; dark period): 118.2 ± 28.3 min
Latency time, slow wave sleep stage ([1]; dark period): 78.6 ± 22.8 min
Amount of spontaneous motor activity at 6 hr after administration ([1]; light period): 2316 ± 295 count
Latency time, fast wave sleep stage ([1]; light period): 20.9 ± 3.4 min
Latency time, slow wave sleep stage ([1]; light period): 8.5 ± 1.2 min
slow wave sleep (%) in sleep onset initial stage ([2]; early stage (1 hr) of sleep onset, placebo 6.4, p value 0.020): 12.0%
lights-out - sleep onset ([2]; placebo 16.3, p value 0.322): 13.3 min
lights-out - slow wave sleep ([2]; placebo 103.4, p value 0.042): 52.2 min
Improved easiness of falling asleep [3, 13]: 9 days
Improved realization of deep sleep [3, 13]: 10 days
Improved easiness of falling asleep [3, 14]: 5 days
Improved realization of deep sleep [3, 14]: 5 days
Improved easiness of falling asleep [3, 15]: 4 days
Improved realization of deep sleep [3, 15]: 4 days
Improved easiness of falling asleep [3, 16]: 14 days
Improved realization of deep sleep [3, 16]: 14 days
Improved easiness of falling asleep [3, 17]: 7 days
Improved realization of deep sleep [3, 17]: 7 days
Improved easiness of falling asleep ([3]; powder, 3 days of testing): 3 days
Improved realization of deep sleep ([3]; powder, 3 days of testing): 3 days
participants commenting that no effect was found ([4]; out of 77 participants): 17 participants
participants commenting that the quality of sleep was improved ([4]; out of 77 participants): 58 participants
participants commenting that the quality was degraded ([4]; out of 77 participants): 2 participants
Awakening was fresh: Degrading effect [4, 18]: 1 person
Awakening was fresh: Enhancing effect on quality of sleep [4, 18]: 24 person
Deep sleep was realized: Degrading effect [4, 18]: 0 person
Deep sleep was realized: Enhancing effect on quality of sleep [4, 18]: 8 person
Did not wake up at midnight: Degrading effect [4, 18]: 1 person
Did not wake up at midnight: Enhancing effect on quality of sleep [4, 18]: 6 person
Fell asleep easily: Degrading effect [4, 18]: 0 person
Fell asleep easily: Enhancing effect on quality of sleep [4, 18]: 6 person
Had no dream: Degrading effect [4, 18]: 0 person
Had no dream: Enhancing effect on quality of sleep [4, 18]: 4 person
Sleep was deeper: Degrading effect [4, 18]: 0 person
Sleep was deeper: Enhancing effect on quality of sleep [4, 18]: 10 person
Slept well: Degrading effect [4, 18]: 0 person
Slept well: Enhancing effect on quality of sleep [4, 18]: 2 person
Snoring decreased: Degrading effect [4, 18]: 0 person
Snoring decreased: Enhancing effect on quality of sleep [4, 18]: 19 person
sleepiness during daytime reduced: Degrading effect [4, 18]: 0 person
sleepiness during daytime reduced: Enhancing effect on quality of sleep [4, 18]: 4 person
sleepiness during the next daytime ([5]; all three test participants, 1.5 g before sleep, compared to absence of glycine): felt a lower level of sleepiness
Heavy sleepiness (1 pm to 5 pm next afternoon) ([5]; test participant A): 0 days
Mild sleepiness (1 pm to 5 pm next afternoon) ([5]; test participant A): 2 days
No sleepiness (1 pm to 5 pm next afternoon) ([5]; test participant A): 2 days
Heavy sleepiness (1 pm to 5 pm next afternoon) ([5]; test participant B): 0 days
Mild sleepiness (1 pm to 5 pm next afternoon) ([5]; test participant B): 1 days
No sleepiness (1 pm to 5 pm next afternoon) ([5]; test participant B): 2 days
Heavy sleepiness (1 pm to 5 pm next afternoon) ([5]; test participant C): 0 days
Mild sleepiness (1 pm to 5 pm next afternoon) ([5]; test participant C): 0 days
No sleepiness (1 pm to 5 pm next afternoon) ([5]; test participant C): 1 days
lassitude (SAM lassitude check list total points) ([6]; placebo 9.0 ± 0.68, p value 0.025): 7.0 ± 0.74
sleepiness (distance from left end of 100 mm line) ([6]; placebo 50.7 ± 4.39, p value 0.042): 38.1 ± 4.47 mm
R-R interval in electrocardiogram ([7]; 1-4 hr after administration, compared to control): increased
parasympathetic activity (high frequency component HF) ([7]; power spectrum analysis of R-R interval): dominant
memory and attention [8]: increases memory and attention
